Species on record: Rattus norvegicus
Assay: Open TG-GATES - Regimen: Daily Repeat
Format: toxicity, organism-based, Sprague-Dawley
Set-up: regimen Daily Repeat, gender Male, age 6 weeks
Conditions: in vivo, po, 0 mg/kg, route gavage, dose level Control; for APTT / Bas / Eos / Fbg / Hb / Ht / Lym / MCH / MCHC / MCV / Mono / Neu / PT / Plat / RBC / Ret / WBC: tissue Blood; for KIDNEY_L / KIDNEY_R / KIDNEY_TOTAL: tissue Kidney; for LIVER: tissue Liver; for A/G / ALP / ALT / AST / BUN / CRE / Ca / Cl / DBIL / GLC / IP / K / LDH / Na / PL / RALB / TBIL / TC / TG / TP / gamma-GTP: tissue Plasma

Cc1nnc2n1-c1ccc(Cl)cc1C(c1ccccc1Cl)=NC2 [TRIAZOLAM]
TERMINAL_BW (72 h, time 3 day): 223.3 g | APTT (72 h, time 3 day): 19.2 s | Bas (72 h, time 3 day): 0% | Eos (72 h, time 3 day): 1.2% | Fbg (72 h, time 3 day): 272.8 mg/dL | Hb (72 h, time 3 day): 13.7 g/dL | Ht (72 h, time 3 day): 40.9% | Lym (72 h, time 3 day): 75.6% | MCH (72 h, time 3 day): 21 pg | MCHC (72 h, time 3 day): 33.5% | MCV (72 h, time 3 day): 62.7 fL | Mono (72 h, time 3 day): 3% | Neu (72 h, time 3 day): 19.2% | PT (72 h, time 3 day): 13 s | Plat (72 h, time 3 day): 121.4 x10_4/uL | RBC (72 h, time 3 day): 651.8 x10_4/ul | Ret (72 h, time 3 day): 7.4% | WBC (72 h, time 3 day): 85.5 x10_2/uL | KIDNEY_L (72 h, time 3 day): 1 g | KIDNEY_R (72 h, time 3 day): 1 g | KIDNEY_TOTAL (72 h, time 3 day): 1.9 g | LIVER (72 h, time 3 day): 10.5 g | A/G (72 h, time 3 day): 0.9 | ALP (72 h, time 3 day): 1815 IU/L | ALT (72 h, time 3 day): 48.2 IU/L | AST (72 h, time 3 day): 75.8 IU/L | BUN (72 h, time 3 day): 15 mg/dL | CRE (72 h, time 3 day): 0.2 mg/dL | Ca (72 h, time 3 day): 11.3 mg/dL | Cl (72 h, time 3 day): 104.8 meq/L | DBIL (72 h, time 3 day): 0.014 mg/dL | GLC (72 h, time 3 day): 172.2 mg/dL | IP (72 h, time 3 day): 8.4 mg/dL | K (72 h, time 3 day): 4 meq/L | LDH (72 h, time 3 day): 74.8 IU/L | Na (72 h, time 3 day): 143.2 meq/L | PL (72 h, time 3 day): 168.8 mg/dL | RALB (72 h, time 3 day): 2.6 g/dL | TBIL (72 h, time 3 day): 0.054 mg/dL | TC (72 h, time 3 day): 86.4 mg/dL | TG (72 h, time 3 day): 126 mg/dL | TP (72 h, time 3 day): 5.6 g/dL | gamma-GTP (72 h, time 3 day): 1.2 IU/L | TERMINAL_BW ([…], time 7 day): 259.3 g | TERMINAL_BW ([…], time 14 day): 313.4 g | TERMINAL_BW ([…], time 28 day): 389.2 g | APTT ([…], time 7 day): 21.5 s | Bas ([…], time 7 day): 0% | Eos ([…], time 7 day): 1.2% | Fbg ([…], time 7 day): 262.4 mg/dL | Hb ([…], time 7 day): 13.7 g/dL | Ht ([…], time 7 day): 40.7% | Lym ([…], time 7 day): 76.4% | MCH ([…], time 7 day): 20.6 pg | MCHC ([…], time 7 day): 33.7% | MCV ([…], time 7 day): 61.2 fL | Mono ([…], time 7 day): 2.4% | Neu ([…], time 7 day): 19.4% | PT ([…], time 7 day): 12.8 s | Plat ([…], time 7 day): 126.9 x10_4/uL | RBC ([…], time 7 day): 665.6 x10_4/ul | Ret ([…], time 7 day): 5.6% | WBC ([…], time 7 day): 92.9 x10_2/uL | APTT ([…], time 14 day): 18.7 s | Bas ([…], time 14 day): 0.4% | Eos ([…], time 14 day): 1% | Fbg ([…], time 14 day): 250.2 mg/dL | Hb ([…], time 14 day): 14.4 g/dL | Ht ([…], time 14 day): 43.9% | Lym ([…], time 14 day): 74.6% | MCH ([…], time 14 day): 19.9 pg | MCHC ([…], time 14 day): 32.8% | MCV ([…], time 14 day): 60.6 fL | Mono ([…], time 14 day): 2.4% | Neu ([…], time 14 day): 21% | PT ([…], time 14 day): 13.6 s | Plat ([…], time 14 day): 122.6 x10_4/uL | RBC ([…], time 14 day): 723.8 x10_4/ul | Ret ([…], time 14 day): 4.5% | WBC ([…], time 14 day): 116.9 x10_2/uL | APTT ([…], time 28 day): 18.6 s | Bas ([…], time 28 day): 0.4% | Eos ([…], time 28 day): 1.4% | Fbg ([…], time 28 day): 262.6 mg/dL | Hb ([…], time 28 day): 15.3 g/dL | Ht ([…], time 28 day): 45.3% | Lym ([…], time 28 day): 79.6% | MCH ([…], time 28 day): 18.8 pg | MCHC ([…], time 28 day): 33.7% | MCV ([…], time 28 day): 55.8 fL | Mono ([…], time 28 day): 2% | Neu ([…], time 28 day): 15.8% | PT ([…], time 28 day): 13.4 s | Plat ([…], time 28 day): 106.8 x10_4/uL | RBC ([…], time 28 day): 812.8 x10_4/ul | Ret ([…], time 28 day): 2.1% | WBC ([…], time 28 day): 76.6 x10_2/uL | KIDNEY_L ([…], time 7 day): 1.1 g | KIDNEY_R ([…], time 7 day): 1.1 g | KIDNEY_TOTAL ([…], time 7 day): 2.2 g | KIDNEY_L ([…], time 14 day): 1.2 g | KIDNEY_R ([…], time 14 day): 1.2 g | KIDNEY_TOTAL ([…], time 14 day): 2.4 g | KIDNEY_L ([…], time 28 day): 1.4 g | KIDNEY_R ([…], time 28 day): 1.4 g | KIDNEY_TOTAL ([…], time 28 day): 2.7 g | LIVER ([…], time 7 day): 11.8 g | LIVER ([…], time 14 day): 13.3 g | LIVER ([…], time 28 day): 15.3 g | A/G ([…], time 7 day): 0.9 | ALP ([…], time 7 day): 1652.6 IU/L | ALT ([…], time 7 day): 45.4 IU/L | AST ([…], time 7 day): 75 IU/L | BUN ([…], time 7 day): 16.8 mg/dL | CRE ([…], time 7 day): 0.2 mg/dL | Ca ([…], time 7 day): 10.9 mg/dL | Cl ([…], time 7 day): 105.8 meq/L | DBIL ([…], time 7 day): 0.01 mg/dL | GLC ([…], time 7 day): 188.2 mg/dL | IP ([…], time 7 day): 7.6 mg/dL | K ([…], time 7 day): 4.3 meq/L | LDH ([…], time 7 day): 73.6 IU/L | Na ([…], time 7 day): 141.8 meq/L | PL ([…], time 7 day): 161.6 mg/dL | RALB ([…], time 7 day): 2.6 g/dL | TBIL ([…], time 7 day): 0.042 mg/dL | TC ([…], time 7 day): 85 mg/dL | TG ([…], time 7 day): 122.8 mg/dL | TP ([…], time 7 day): 5.6 g/dL | gamma-GTP ([…], time 7 day): 1 IU/L | A/G ([…], time 14 day): 0.8 | ALP ([…], time 14 day): 1514.4 IU/L | ALT ([…], time 14 day): 46 IU/L | AST ([…], time 14 day): 79.6 IU/L | BUN ([…], time 14 day): 15.4 mg/dL | CRE ([…], time 14 day): 0.2 mg/dL | Ca ([…], time 14 day): 10.9 mg/dL | Cl ([…], time 14 day): 104.4 meq/L | DBIL ([…], time 14 day): 0.012 mg/dL | GLC ([…], time 14 day): 172.4 mg/dL | IP ([…], time 14 day): 7.1 mg/dL | K ([…], time 14 day): 3.9 meq/L | LDH ([…], time 14 day): 90 IU/L | Na ([…], time 14 day): 143 meq/L | PL ([…], time 14 day): 167.4 mg/dL | RALB ([…], time 14 day): 2.6 g/dL | TBIL ([…], time 14 day): 0.044 mg/dL | TC ([…], time 14 day): 82.4 mg/dL | TG ([…], time 14 day): 135.6 mg/dL | TP ([…], time 14 day): 5.7 g/dL | gamma-GTP ([…], time 14 day): 1.4 IU/L | A/G ([…], time 28 day): 0.8 | ALP ([…], time 28 day): 1373.8 IU/L | ALT ([…], time 28 day): 36.6 IU/L | AST ([…], time 28 day): 62 IU/L | BUN ([…], time 28 day): 15.4 mg/dL | CRE ([…], time 28 day): 0.2 mg/dL | Ca ([…], time 28 day): 10.7 mg/dL | Cl ([…], time 28 day): 105.8 meq/L | DBIL ([…], time 28 day): 0.008 mg/dL | GLC ([…], time 28 day): 185.8 mg/dL | IP ([…], time 28 day): 6.3 mg/dL | K ([…], time 28 day): 4.2 meq/L | LDH ([…], time 28 day): 57 IU/L | Na ([…], time 28 day): 144 meq/L | PL ([…], time 28 day): 158.4 mg/dL | RALB ([…], time 28 day): 2.7 g/dL | TBIL ([…], time 28 day): 0.056 mg/dL | TC ([…], time 28 day): 72.8 mg/dL | TG ([…], time 28 day): 159.8 mg/dL | TP ([…], time 28 day): 6.1 g/dL | gamma-GTP ([…], time 28 day): 1 IU/L
